In US20220128542A1, “TREATMENT EFFICIENCY EVALUATION” (TX MEDIC AB, priority 2019, published 2022):

Columns and labels:
[1] = test system: Human umbilical vein endothelial cells (HUVECs); experiment: Gene expression array and pathway/upstream regulator analysis in HUVECs (Example 2); format: cell-based; conditions: for differentially expressed genes: HUVEC
Description: (§1) For each cell line, n=8×25 cm^2 culture flasks were set up. Two flasks were harvested for each cell type on the day of treatment (24 hours after seeding). This represents the Day0 time point. From the remaining flasks, three flasks were treated with Control Medium and three were treated with Culture Medium (CM) containing LMW-DS to give a final concentration of 0.01 mg/ml. Cells from the treated flasks were collected after 48 hours. Therefore the collected data represent (a) untreated cells (Day0 Controls and Day2 Controls) and (b) cells treated with LMW-DS for 48 hours (Day2 LMW-DS treated).
(§2) 25 cm^2 flasks were coated by adding 2 ml per flask of a solution of 50 μg/ml poly-d-lysine in Hank's balanced salt solution (HBSS) and incubating overnight at 37° C. in the dark. Flasks were washed with cell culture water and air-dried for 30 min in the dark. Flasks were coated by adding 1 ml per flask of a solution of 25 μg/ml laminin in phosphate-buffered saline (PBS) and incubating for 2 hour at 37° C. in the dark. The laminin flasks were washed with PBS three times before plating cells.
Medium 200+Large Vessel Endothelial Supplement (M200+LVES) additive (1:50) was prepared and pre-warmed to 37° C. Cells were thawed in a 37° C. water bath for no longer than 2 min and gently transferred into a 50 ml tube containing 20 ml Dulbecco's Modified Eagle Medium, Nutrient Mixture F-12 (DMEM-F12). The cell suspension was mixed by inverting the tube carefully twice. Cells were spun at 400×g for 10 minutes. Supernatant removed and cells were re-suspended in 10 ml of culture media (M200+LVES additive).
Cells were counted with the Cellometer. 1,000,000 cells/flask were seeded in 25 cm^2 flasks (n=8) and medium was topped up to a total of 5 ml per flask. Cells were incubated at 37° C. with 5% CO2. Cells were allowed to settle for 24 hours before LMW-DS treatment.
(§3) A fresh 100× LMW-DS stock (1.0 mg/ml) was prepared in sterile DMEM-F12. The concentrated drug stock was sterile filtered and added to the respective culture media (19.6 ml CM and 0.4 ml LMW-DS stock solution). The Control was made using 19.6 ml CM and 0.4 ml of DMEM-F12. LMW-DS and CM were added to the respective flasks (5 ml each) to reach the 0.01 mg/ml concentration of LMW-DS in each dish with a total of 10 ml CM each.
(§4) CM was aspirated into a clean and labelled 15 ml Falcon tube. The flasks (without culture medium) were placed into the −80° C. freezer for 30 minutes. The CM in the Falcon tubes was spun at 3000×g for 5 minutes. Supernatant was removed and the small pellet was re-suspended in 2.5 ml Trizol:Water (4:1) solution at room temperature (RT, ˜22° C.).
(§5) The frozen flasks were removed one-by one from the freezer and the Trizol-Water from the appropriate tubes was moved to the flask. Flasks were left at RT for 5 minutes before the content was aspirated back into the 15 ml Falcon tube (after washing the bottom of the flask with the solution thoroughly). The flasks were inspected under the microscope to ensure full removal of cells. The collected lysates in the 15 ml Falcon tubes were placed into the −80° C. freezer.
(§6) Falcon tubes containing the homogenates were removed from the freezer and stored for 5 minutes at RT to permit the complete dissociation of nucleoprotein complexes.
(§7) Two aliquots of 1 ml lysate were removed from each sample and 200 μl of chloroform was added to each (0.2 ml of chloroform per 1 ml of TRIzol Reagent used during the cell lysis step) and the tube was shaken vigorously. Samples were stored at RT for 2-3 minutes and subsequently centrifuged at 12,000×g for 15 minutes at 4° C.
The mixture separated into three layers: a lower red phenol-chloroform phase, an interphase and a colorless upper aqueous phase. The RNA remained in the top aqueous phase, DNA in the white middle (interphase) phase and protein in the pink bottom (organic) phase. The top ¾ of the aqueous phase was transferred to a new clean Eppendorf tube. […]

Mouse motor neurons = experiment: Gene expression array and pathway/upstream regulator analysis in motor neurons (Example 2); format: cell-based; conditions: 0.01 mg/ml
Description: as §1, §2
The culture medium was prepared according to Table 5.
Medium (see Table 5) was pre-warmed to 37° C. Cells were thawed in a 37° C. water bath for no longer than 2 min. 9 ml of media was gently added drop-wise. The cell suspension was mixed by inverting the tube carefully twice. The cells were counted with a Cellometer. The cells were centrifuged for 5 minutes at 200×g. Supernatant was removed (to the last 0.5 ml) and cells were gently re-suspended by trituration. The cells from the 8 vials were mixed and distributed equally into the previously coated 25 cm^2 flasks (n=8). Cells were incubated at 37° C. with 5% CO2 for 24 hours before treatment.
as §3, §4, §5, §6, §7
The mixture separated into three layers: a lower red phenol-chloroform phase, an interphase and a colorless upper aqueous phase. The RNA remained in the top aqueous phase, DNA in the white middle (interphase) phase and protein in the pink bottom (organic) phase. The top ¾ of the aqueous phase was transferred to a new clean Eppendorf tube.
The RNA was precipitated from the aqueous phase by adding an equal amount of 100% ethanol. The precipitated RNA was fixed onto a Spin Cartridge, washed twice and dried. […]

sodium salt of dextran sulfate [LMW-DS]
differentially expressed genes ([1]; D0 control vs D2 LMW-DS treated, 0.01 mg/ml): 1779 genes
differentially expressed genes ([1]; D2 control vs D2 LMW-DS treated, 0.01 mg/ml): 76 genes
cell adhesion ([1]; HUVECs): not affected
number of genes: no effect / abolished nutrient effect ([1]; HUVECs, 0.01 mg/ml, 48 hours): 67
number of genes: no effect / total ([1]; HUVECs, 0.01 mg/ml, 48 hours): 67
number of genes: significant downregulation / abolished nutrient effect ([1]; HUVECs, 0.01 mg/ml, 48 hours): 4
number of genes: significant downregulation / enhanced response to nutrients ([1]; HUVECs, 0.01 mg/ml, 48 hours): 120
number of genes: significant downregulation / not different from control ([1]; HUVECs, 0.01 mg/ml, 48 hours): 167
number of genes: significant downregulation / total ([1]; HUVECs, 0.01 mg/ml, 48 hours): 291
number of genes: significant upregulation / abolished nutrient effect ([1]; HUVECs, 0.01 mg/ml, 48 hours): 11
number of genes: significant upregulation / enhanced response to nutrients ([1]; HUVECs, 0.01 mg/ml, 48 hours): 229
number of genes: significant upregulation / not different from control ([1]; HUVECs, 0.01 mg/ml, 48 hours): 1326
number of genes: significant upregulation / total ([1]; HUVECs, 0.01 mg/ml, 48 hours): 1566
number of genes: total / abolished nutrient effect ([1]; HUVECs, 0.01 mg/ml, 48 hours): 82
number of genes: total / enhanced response to nutrients ([1]; HUVECs, 0.01 mg/ml, 48 hours): 349
number of genes: total / not different from control ([1]; HUVECs, 0.01 mg/ml, 48 hours): 1493
number of genes: total / total ([1]; HUVECs, 0.01 mg/ml, 48 hours): 1924
number of genes: no effect / abolished nutrient effect (Mouse motor neurons; 48 hours): 177
number of genes: no effect / new effect induced by LMW-DS (Mouse motor neurons; 48 hours): 108
number of genes: no effect / total (Mouse motor neurons; 48 hours): 285
number of genes: significant downregulation / abolished nutrient effect (Mouse motor neurons; 48 hours): 47
number of genes: significant downregulation / enhanced response to nutrients (Mouse motor neurons; 48 hours): 36
number of genes: significant downregulation / new effect induced by LMW-DS (Mouse motor neurons; 48 hours): 375
number of genes: significant downregulation / not different from control (Mouse motor neurons; 48 hours): 104
number of genes: significant downregulation / total (Mouse motor neurons; 48 hours): 562
number of genes: significant upregulation / abolished nutrient effect (Mouse motor neurons; 48 hours): 40
number of genes: significant upregulation / enhanced response to nutrients (Mouse motor neurons; 48 hours): 103
number of genes: significant upregulation / new effect induced by LMW-DS (Mouse motor neurons; 48 hours): 71
number of genes: significant upregulation / not different from control (Mouse motor neurons; 48 hours): 75
number of genes: significant upregulation / total (Mouse motor neurons; 48 hours): 289
number of genes: total / abolished nutrient effect (Mouse motor neurons; 48 hours): 264
number of genes: total / enhanced response to nutrients (Mouse motor neurons; 48 hours): 139
number of genes: total / new effect induced by LMW-DS (Mouse motor neurons; 48 hours): 554
number of genes: total / not different from control (Mouse motor neurons; 48 hours): 179
number of genes: total / total (Mouse motor neurons; 48 hours): 1136
differentially expressed genes (Mouse motor neurons; D0 control vs D2 LMW-DS treated): 315 genes
differentially expressed genes (Mouse motor neurons; second comparison): 425 genes
